Laboratory results reported in US20110207820A1, “NOVEL CHRYSOCHROMULINA SPECIES, METHODS AND MEDIA THEREFOR, AND PRODUCTS DERIVED THEREFROM” (UNIVERSITY OF WASHINGTON, priority 2008, published 2011).
Where two headings read alike, the source gives them in different places.

Columns and labels:
[1] = test system: Alga X
Description: The mother culture is generally about one week old and has a culture density of about 2×10̂6.
Two experiments were run using 0, 8, 16, 32, and 64 mM NaCl salt concentrations in the Alga X culture medium. Alga cells were collected for lipid analysis at 0, 3, 6, and 9 days for each salt concentration.
The starting culture densities were 5.00E+03 cells/ml.
The starting culture densities were 1.00E+05 cells/ml.
Alga X cell cultures were subjected to agitation between 0 and 100 rpm.
A volume of about 37.6 ml of original stock was added to each starting flask, with the balance being medium to bring the cell cultures to a concentration of about 1.00E+06.
The original stock culture was maintained in CORE1 (distilled water based medium), plus SEM, with a concentration of about 3.19E+06 cells/ml. Volumes of 34.5 ml of original stock were added to each starting flask, with the balance being medium to bring the cell cultures to a concentration of about 1.00E+05.
The experimental AMPSO culture was maintained in a medium of Clear (human waste water), SEM, and 8 mM AMPSO pH buffer. The AMPSO plus NaHCO3 culture was maintained in a medium of Clear (human waste water), SEM, 8 mM AMPSO pH buffer, and 2 mM NaHCO3.

[2] = test system: Single-cell and filamentous species of algae; assay: Algal growth in the continuous presence of the dye; type: cell-based; details: micromolar concentrations, for days (data not shown)
[3] = test system: lipid bodies in algal cells; assay: BODIPY 505/515 vital staining of lipid bodies in live algal cells (fluorescence microscopy, cell sorter); type: cell-based, Alga X
From the text: When added to a culture of algal cells, 1-10 micro-liters of BODIPY 505/515 stains intracellular lipid bodies within minutes. (Preparation of a BODIPY 505/515 stock solution is described below in EXAMPLE 30.) BODIPY 505/515 accumulates in lipidic compartments by a diffusion-trap mechanism. The dye has a high oil/water partition coefficient, which allows it to cross cell membranes and organelle membranes easily. When viewed under a fluorescent microscope, the background fluorescence of BODIPY 505/515 in the bath solution is slightly visible. Despite the slight background fluorescence, lipid bodies within live algal cells are intensely labeled and can be easily seen using fluorescein-type optics or confocal microscopy (see FIG. 8). […] This fluorescence arises from endogenous carotenoid and chlorophyll molecules located within the chloroplasts.
Fluorescently labeled cells with large lipid bodies can be isolated using the fluorescent cell sorter and used to successfully seed new algal cultures. Fluorescently labeled cells have a signal/noise ratio of 50-200 above background fluorescence, depending on the BODIPY 505/515 dye concentration used. […] BODIPY 505/515 can be used to characterize the diurnal rhythm of lipid body size within algal cells or decline in lipid quantity per cell as a culture moves from one life history phase to another. […]

[4] = test system: Alga X; assay: Fatty acid content and fatty acid profile of Alga X cells grown in test media (GC/MS, FAME ionization detection); type: cell-based, Chrysochromulina sp.

Molecule: O=P(O)(O)OC(CO)CO [BGlycerolphosphate, beta-glycerophosphate]
- cells/mL ([1]; B-glycerolphosphate 6.45 uM (control amount), day 2): 6.98E+05 cells/mL
- cells/mL ([1]; B-glycerolphosphate 6.45 uM (control amount), day 3): 1.57E+06 cells/mL
- cells/mL ([1]; B-glycerolphosphate 6.45 uM (control amount), day 4): 2.75E+06 cells/mL
- cells/mL ([1]; B-glycerolphosphate 6.45 uM (control amount), day 6): 3.54E+06 cells/mL
- cells/mL ([1]; B-glycerolphosphate 6.45 uM (control amount), day 8): 4.10E+06 cells/mL
- cells/mL ([1]; B-glycerolphosphate 6.45 uM (control amount), day 9): 4.53E+06 cells/mL

Molecule: CC1=CC(C)=[N+]2C1=Cc1c(C)cc(C)n1[B-]2(F)F [BODIPY 505/515, 4,4-difluoro-1,3,5,7-tetramethyl-4-bora-3a,4a-diaza-s-indacene]
- growth of algae in continuous presence of the dye [2]: continue to grow well
- time after dye addition until fluorescently-labeled lipid bodies are visible ([3]; 1 micro-molar BODIPY 505/515, 0.05% DMSO): ≤ 5 min
- signal/noise ratio of labeled cells above background fluorescence ([3]; depending on dye concentration): 50-200

Molecule: O=P([O-])(O)O.[K+] [KH2PO4]
- fatty acid productivity ([4]; increasing KH2PO4, by day 6): increases slightly

Molecule: [Cl-].[Na+] [NaCl]
- level of NaCl at which Alga X exhibits maximum growth [1]: 8.0 mM
- survival of Alga X cells [1]: did not survive
- cell growth ([1]; 32 mM salt content): depressed

Molecule: CC(=O)O [acetate]
- cells/mL ([1]; acetate 100 uM, day 0): 1.0E+05 cells/mL
- cells/mL ([1]; acetate 100 uM, day 3): 1.54E+06 cells/mL
- cells/mL ([1]; acetate 100 uM, day 6): 3.27E+06 cells/mL
- cells/mL ([1]; acetate 100 uM, day 9): 4.87E+06 cells/mL
- cells/mL ([1]; acetate 200 uM, day 0): 1.0E+05 cells/mL
- cells/mL ([1]; acetate 200 uM, day 3): 1.69E+06 cells/mL
- cells/mL ([1]; acetate 200 uM, day 6): 4.02E+06 cells/mL
- cells/mL ([1]; acetate 200 uM, day 9): 5.02E+06 cells/mL
- cells/mL ([1]; acetate 400 uM, day 0): 1.0E+05 cells/mL
- cells/mL ([1]; acetate 400 uM, day 3): 1.67E+06 cells/mL
- cells/mL ([1]; acetate 400 uM, day 6): 4.44E+06 cells/mL
- cells/mL ([1]; acetate 400 uM, day 9): 4.70E+06 cells/mL

Molecule: O=C([O-])O.[Na+] [sodium bicarbonate]
- cell culture growth ([1]; 2 mM, 4 mM or 6 mM, with AMPSO pH buffer): further enhances cell culture growth

Molecule: nitrogen
- lipid per cell ([4]; increased nitrogen in the media): little affected
